1 molecule from ChEMBL document CHEMBL6109081, “Discovery and optimization of phenazopyridine hydrochloride as novel SARS-CoV-2 RdRp inhibitors” (Eur J Med Chem, 2025) can be followed below.

Data set [1] deals with T1, Replicase polyprotein 1ab (Severe acute respiratory syndrome coronavirus 2, UniProt P0DTD1). Briefly: Inhibition of his tagged SARS-CoV-2 nsp12 in HEK-293T cells cotransfected with pCoV-GLuc incubated for 24 hrs in the presence of coelenterazine-h by Gaussia luciferase reporter assay. It counts as cell-based. (A reporter such as luciferase makes a cellular process visible.)

Data set [2] is described as follows: Cytotoxicity against HEK293T cells assessed as inhibition of cell growth measured after 48 hrs by CCK8 assay. In kind it is toxicity, cell-based, HEK-293T. As to conditions: human. For orientation: Tetrazolium dyes change colour on reduction, which living cells bring about.
A short description of data set [3]: Antiviral activity against SARS-CoV-2 infected in HEK293T cells assessed as inhibition of SARS-CoV-2 RdRp in the presence of coelenterazine-h incubated for 24 hrs by Gaussia luciferase reporter assay. As to conditions: Homo sapiens, HEK-293T. It counts as functional, cell-based.
Data set [4] addresses Replicase polyprotein 1ab (Severe acute respiratory syndrome coronavirus 2) (UniProt P0DTD1). As to the kind of experiment: Inhibition of SARS-CoV-2 RdRp mediated RNA synthesis in HEK-293T cells cotransfected with pCoV-GLuc and pCMV6-nsp12/nsp7/nsp8 assessed as reduction in minus strand RNA level by measuring GLuc RNA level for 24 hrs in the presence of coelenterazine-h by Gaussia luciferase reporter assay. In kind it is cell-based. To be noted: dose 2-10 µM.

In data set [5] the test system is Human coronavirus OC43. As to the kind of experiment: Potency index, ratio of PAP EC50 to test compound EC50 for antiviral activity against HCoV-OC43 infected in human HCT-8 cells assessed as reduction in virus-induced cytopathic effect measured after 120 hrs by MTS assay. It counts as functional. On the technique in general: Protection from cytopathic effect is a common read-out in antiviral testing.

A short description of data set [6]: Cytotoxicity against Rhesus monkey LLC-MK2 cells incubated for 48 hrs by method. In kind it is toxicity, cell-based, Macaca mulatta.
Data set [7] addresses T1, Replicase polyprotein 1ab. Briefly: Binding affinity to SARS-CoV-2 nsp12 expressed in Escherichia coli BL21 (DE3) cells using biotinylated EZ-link NHS-LC-LC assessed as dissociation constant incubated for 180 sec by BLI assay.
Data set [8] has as its target T1, Replicase polyprotein 1ab. Briefly: Binding affinity to SARS-CoV-2 nsp12 expressed in Escherichia coli BL21 (DE3) cells using biotinylated EZ-link NHS-LC-LC assessed as dissociation constant at 6.25 to 100 uM incubated for 180 sec by BLI assay.
The target of data set [9] is Replicase polyprotein 1ab (Severe acute respiratory syndrome coronavirus 2) (UniProt P0DTD1). As to the kind of experiment: Inhibition of SARS-CoV-2 RdRp mediated RNA synthesis in HEK-293T cells cotransfected with pCoV-GLuc and pCMV6-nsp12/nsp7/nsp8 assessed as reduction in plus strand RNA level by measuring GLuc RNA level for 24 hrs in the presence of coelenterazine-h by Gaussia luciferase reporter assay. It counts as cell-based. As to conditions: dose 2-10 µM.

For data set [10], the target named is T1, Replicase polyprotein 1ab. As to the kind of experiment: Inhibition of SARS-CoV-2 nsp14 in HEK-293T cells cotransfected with pCoV-GLuc incubated for 24 hrs in the presence of coelenterazine-h by Gaussia luciferase reporter assay. In kind it is cell-based.
Data set [11] deals with Replicase polyprotein 1ab (Severe acute respiratory syndrome coronavirus 2) (UniProt P0DTD1). As to the kind of experiment: Inhibition of SARS-CoV-2 RdRp mediated RNA synthesis in HEK-293T cells cotransfected with pCoV-GLuc and pCMV6-nsp12/nsp7/nsp8 assessed as reduction in minus strand RNA level at 10 uM by measuring GLuc RNA level for 24 hrs in the presence of coelenterazine-h by Gaussia luciferase reporter assay relative to control. It counts as cell-based.

Data set [12] can be described thus: Cytotoxicity against human HCT-8 cells incubated for 48 hrs by CCK8 method. In kind it is toxicity, cell-based.
The test system of data set [13] is Human coronavirus OC43. As to the kind of experiment: Antiviral activity against HCoV-OC43 infected in human HCT-8 cells at a MOI of 0.1 assessed as inhibition of viral replication measured after 5 days by MTS assay. It counts as functional, organism-based. To be noted: Betacoronavirus 1, HCT-8, 120 h.
A short description of data set [14]: Selectivity index, ratio of CC50 for cytotoxicity against HEK293T cells assessed as inhibition of cell growth to EC50 for antiviral activity against SARS-CoV-2 infected in HEK293T cells assessed as inhibition of SARS-CoV-2 RdRp. In kind it is toxicity, cell-based. To be noted: human, read-out: Ratio CC50/EC50.
Data set [15] addresses Replicase polyprotein 1ab (Severe acute respiratory syndrome coronavirus 2) (UniProt P0DTD1). Briefly: Inhibition of SARS-CoV-2 RdRp in HEK-293T cells at 10 uM measured after 24 hrs relative to control. It counts as cell-based.
For data set [16], the system named is Human coronavirus NL63. Briefly: Potency index, ratio of PAP EC50 to test compound EC50 for antiviral activity against HCoV-NL63 infected in Rhesus monkey LLC-MK2 cells assessed as reduction in viru-induced cytopathic effect measured after 120 hrs by MTS assay. In kind it is functional.
Data set [17] deals with Human coronavirus NL63. As to the kind of experiment: Antiviral activity against HCoV-NL63 infected in Rhesus monkey LLC-MK2 cells at a MOI of 0.01 assessed as inhibition of viral replication measured after 120 hrs by MTS assay. As to conditions: Human coronavirus NL63, LLC-MK2, 120 h. In kind it is functional, organism-based.

Each structure is given as a SMILES string. Some results are limits rather than exact numbers.

Broadly, the EC50 is the midpoint of the concentration-response curve. In general, CC50 refers to the concentration giving 50% cytotoxicity. As usually defined, the inhibition is the drop in the measured response relative to a control, in per cent. Usually Kd stands for the constant that tells how readily two partners part at equilibrium.

`CC(C)(C)OC(=O)N1CCC[C@H]1C(=O)Nc1nc(N)ccc1/N=N/c1ccccc1`: the EC50 in data set [1] was 1110 nM; in data set [3] it was 1110 nM; in [10], 1360 nM; with Human coronavirus OC43 [13], 1430 nM; in the data set on Human coronavirus NL63 [17], 2990 nM. The CC50 at 48 h in [2], in [6] and in data set [12] was greater than 100000 nM throughout. Also, the inhibition result in data set [4] is “Dose-dependent-effect”; in data set [9] it was “Dose-dependent-effect”; in data set [11], 90%; in data set [15], 88.5%. Besides, the “Ratio EC50” value was determined as 3.28 with Human coronavirus OC43 [5] and 1.85 with Human coronavirus NL63 [16]. For the same molecule, the Kd entry is “Dose-dependent-effect” in data set [7] and 2410 nM in data set [8]. Also, in [14], the selectivity ratio is 6.64.
